Assay results as given in publication PMC4447944 (The Journal of Biological Chemistry, 2015).

Experiments:
hKIT(L576P) = biological target: T1, hKIT(L576P) (Homo sapiens, UniProt P10721, L576P); assay: KINOMEscan; assay type: binding
T1 construct: purchased DiscoverX (KINOMEscan panel)

hWEE1 = biological target: T2, hWEE1 (Homo sapiens, UniProt P30291); assay: KINOMEscan; assay type: binding
T2 construct: purchased DiscoverX

hJAK1(JH1Dom.-catalytic) = biological target: T3, hJAK1(JH1Dom.-catalytic) (Homo sapiens, UniProt P23458); assay: KINOMEscan; assay type: binding
T3 construct: hJAK1(JH1Dom.-catalytic); purchased DiscoverX (KINOMEscan panel)
T3 sequence (P23458 875-1153 limits assumed): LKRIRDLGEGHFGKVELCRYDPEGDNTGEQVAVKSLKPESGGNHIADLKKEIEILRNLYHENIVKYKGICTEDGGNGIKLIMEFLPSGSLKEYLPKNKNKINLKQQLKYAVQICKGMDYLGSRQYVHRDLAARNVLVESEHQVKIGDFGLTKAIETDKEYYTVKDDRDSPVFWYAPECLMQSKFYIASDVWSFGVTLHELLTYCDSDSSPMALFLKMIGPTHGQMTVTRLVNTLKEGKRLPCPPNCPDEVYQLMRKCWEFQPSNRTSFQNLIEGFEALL

hDRAK2 = biological target: T4, hDRAK2 (Homo sapiens, UniProt O94768); assay: KINOMEscan; assay type: binding
T4 construct: purchased DiscoverX

[1] = biological target: T5, hTYK2(JH2Dom.-pseudokinase) (Homo sapiens, UniProt P29597); assay: KINOMEscan; assay type: binding
T5 construct: hTYK2(JH2Dom.-pseudokinase); purchased DiscoverX
T5 sequence (P29597 589-875 limits assumed): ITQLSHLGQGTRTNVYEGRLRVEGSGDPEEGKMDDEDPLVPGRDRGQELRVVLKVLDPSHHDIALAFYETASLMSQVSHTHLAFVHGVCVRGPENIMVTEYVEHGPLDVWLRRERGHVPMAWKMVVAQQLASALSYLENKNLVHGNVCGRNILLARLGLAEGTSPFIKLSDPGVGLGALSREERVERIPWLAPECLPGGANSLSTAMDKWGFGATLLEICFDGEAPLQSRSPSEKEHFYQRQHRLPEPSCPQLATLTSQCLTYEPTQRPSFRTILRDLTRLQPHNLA

hADRα2A = biological target: T6, hADRα2A (Homo sapiens, UniProt P08913); assay: cAMP Potentiation (Eurofins-CEREP); details: @ 10 μM
T6 sequence (P08913 1-465): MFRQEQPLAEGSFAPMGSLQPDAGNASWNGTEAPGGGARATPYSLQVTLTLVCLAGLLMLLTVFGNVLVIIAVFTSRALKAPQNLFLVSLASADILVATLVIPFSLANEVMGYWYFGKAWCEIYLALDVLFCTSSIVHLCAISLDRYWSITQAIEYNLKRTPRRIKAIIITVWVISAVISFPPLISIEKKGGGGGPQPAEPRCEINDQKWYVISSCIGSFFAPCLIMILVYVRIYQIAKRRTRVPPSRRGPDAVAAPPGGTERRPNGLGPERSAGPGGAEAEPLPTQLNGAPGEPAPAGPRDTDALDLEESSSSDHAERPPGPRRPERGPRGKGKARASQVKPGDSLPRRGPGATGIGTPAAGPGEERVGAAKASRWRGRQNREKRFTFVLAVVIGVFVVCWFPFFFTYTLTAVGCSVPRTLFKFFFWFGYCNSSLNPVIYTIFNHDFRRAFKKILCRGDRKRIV

hRSK4(Kin.Dom.1-N-term) = biological target: T7, hRSK4(Kin.Dom.1-N-term) (Homo sapiens, UniProt Q9UK32); assay: KINOMEscan; assay type: binding
T7 construct: hRSK4(Kin.Dom.1-N-term); purchased DiscoverX (KINOMEscan platform)

hMARK3 = biological target: T8, hMARK3 (Homo sapiens, UniProt P27448); assay: KINOMEscan; assay type: binding
T8 construct: purchased DiscoverX

hSRPK2 = biological target: T9, hSRPK2 (Homo sapiens, UniProt P78362); assay: KINOMEscan; assay type: binding
T9 construct: purchased DiscoverX (KINOMEscan platform)
T9 sequence (P78362 whole entry): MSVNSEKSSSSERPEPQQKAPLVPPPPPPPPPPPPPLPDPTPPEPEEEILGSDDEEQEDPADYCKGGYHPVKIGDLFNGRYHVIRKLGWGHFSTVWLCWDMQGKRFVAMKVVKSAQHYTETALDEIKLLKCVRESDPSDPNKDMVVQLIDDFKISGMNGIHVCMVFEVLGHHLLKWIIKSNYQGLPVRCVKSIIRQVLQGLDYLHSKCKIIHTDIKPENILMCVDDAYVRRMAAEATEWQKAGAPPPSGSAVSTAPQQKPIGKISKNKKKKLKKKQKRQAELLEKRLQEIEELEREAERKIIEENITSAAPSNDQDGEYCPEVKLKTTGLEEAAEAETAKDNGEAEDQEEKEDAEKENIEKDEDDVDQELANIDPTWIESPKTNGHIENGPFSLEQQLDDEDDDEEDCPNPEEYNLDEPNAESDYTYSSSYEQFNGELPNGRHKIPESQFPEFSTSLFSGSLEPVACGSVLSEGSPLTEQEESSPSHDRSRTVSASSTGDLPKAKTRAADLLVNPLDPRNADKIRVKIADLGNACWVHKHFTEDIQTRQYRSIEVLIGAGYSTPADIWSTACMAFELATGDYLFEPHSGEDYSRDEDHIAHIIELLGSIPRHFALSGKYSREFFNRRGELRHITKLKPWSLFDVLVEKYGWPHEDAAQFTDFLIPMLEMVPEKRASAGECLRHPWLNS

hTRα1 = biological target: T10, hTRα1 (Homo sapiens, UniProt P10827); assay: Nuclear hormone receptor assay (Eurofins-CEREP); details: read-out: Relative IC50
T10 construct: Eurofins-CEREP
T10 sequence (P10827 1-410 isoform P10827-2): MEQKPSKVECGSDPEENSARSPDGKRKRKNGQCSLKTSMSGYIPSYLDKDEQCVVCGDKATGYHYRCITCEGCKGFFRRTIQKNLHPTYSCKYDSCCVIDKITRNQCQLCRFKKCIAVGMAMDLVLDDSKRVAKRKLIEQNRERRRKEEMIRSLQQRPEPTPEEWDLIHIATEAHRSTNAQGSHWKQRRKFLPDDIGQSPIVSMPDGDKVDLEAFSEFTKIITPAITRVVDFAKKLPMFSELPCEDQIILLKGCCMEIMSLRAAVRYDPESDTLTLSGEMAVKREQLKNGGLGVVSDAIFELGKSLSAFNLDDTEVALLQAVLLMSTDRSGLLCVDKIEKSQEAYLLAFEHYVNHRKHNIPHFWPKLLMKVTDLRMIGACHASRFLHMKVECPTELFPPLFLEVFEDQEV

hMET(M1250T) = biological target: T11, hMET(M1250T) (Homo sapiens, UniProt P08581, M1250T); assay: KINOMEscan; assay type: binding
T11 construct: purchased DiscoverX

hSLK = biological target: T12, hSLK (Homo sapiens, UniProt Q9H2G2); assay: KINOMEscan; assay type: binding
T12 construct: purchased DiscoverX (KINOMEscan platform)
T12 sequence (Q9H2G2 whole entry): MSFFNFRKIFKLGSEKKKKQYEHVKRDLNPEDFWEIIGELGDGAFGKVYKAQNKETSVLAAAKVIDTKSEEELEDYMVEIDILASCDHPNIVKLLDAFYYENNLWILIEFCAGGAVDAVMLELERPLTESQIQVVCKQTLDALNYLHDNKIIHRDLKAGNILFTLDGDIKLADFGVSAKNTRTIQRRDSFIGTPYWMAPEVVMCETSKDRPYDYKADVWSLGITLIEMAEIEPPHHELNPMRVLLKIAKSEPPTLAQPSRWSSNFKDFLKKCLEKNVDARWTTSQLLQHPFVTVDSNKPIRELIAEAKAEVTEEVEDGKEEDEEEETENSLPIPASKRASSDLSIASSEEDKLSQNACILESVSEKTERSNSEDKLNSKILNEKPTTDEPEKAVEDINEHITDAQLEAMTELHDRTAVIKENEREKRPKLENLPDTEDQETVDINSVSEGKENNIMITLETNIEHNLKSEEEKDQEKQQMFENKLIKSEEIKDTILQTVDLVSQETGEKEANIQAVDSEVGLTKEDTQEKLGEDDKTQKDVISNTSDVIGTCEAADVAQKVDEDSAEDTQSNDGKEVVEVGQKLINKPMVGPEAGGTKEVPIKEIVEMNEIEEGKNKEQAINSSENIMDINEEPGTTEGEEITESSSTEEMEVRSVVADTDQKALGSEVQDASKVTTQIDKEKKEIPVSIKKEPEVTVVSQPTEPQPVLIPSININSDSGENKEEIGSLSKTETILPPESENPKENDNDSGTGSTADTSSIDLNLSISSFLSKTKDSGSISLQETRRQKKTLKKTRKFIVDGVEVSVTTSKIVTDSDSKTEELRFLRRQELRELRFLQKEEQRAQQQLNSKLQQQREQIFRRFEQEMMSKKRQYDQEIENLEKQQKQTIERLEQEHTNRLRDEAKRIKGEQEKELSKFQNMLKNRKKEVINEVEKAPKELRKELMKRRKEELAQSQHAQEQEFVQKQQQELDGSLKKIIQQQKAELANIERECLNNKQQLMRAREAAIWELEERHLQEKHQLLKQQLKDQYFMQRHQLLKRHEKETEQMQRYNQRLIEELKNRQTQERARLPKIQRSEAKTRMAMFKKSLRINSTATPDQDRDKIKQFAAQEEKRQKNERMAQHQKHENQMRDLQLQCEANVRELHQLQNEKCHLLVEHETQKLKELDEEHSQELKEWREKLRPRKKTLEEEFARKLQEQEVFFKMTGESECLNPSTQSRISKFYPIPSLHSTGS

hD1 = hD1 (Homo sapiens, UniProt P21728); assay: cAMP 1% DMSO Potentiation (Eurofins-CEREP); details: @ 10 μM
hRIPK2 = biological target: T13, hRIPK2 (Homo sapiens, UniProt O43353); assay: KINOMEscan; assay type: binding
T13 construct: purchased DiscoverX (KINOMEscan platform)

[2] = biological target: T14, hEGFR(L747-E749del, A750P) (Homo sapiens, UniProt P00533, A750P/DEL747-749); assay: KINOMEscan; assay type: binding
T14 construct: purchased DiscoverX
T14 sequence (P00533 with tags, fused parts or gaps DEL747-749/A750P): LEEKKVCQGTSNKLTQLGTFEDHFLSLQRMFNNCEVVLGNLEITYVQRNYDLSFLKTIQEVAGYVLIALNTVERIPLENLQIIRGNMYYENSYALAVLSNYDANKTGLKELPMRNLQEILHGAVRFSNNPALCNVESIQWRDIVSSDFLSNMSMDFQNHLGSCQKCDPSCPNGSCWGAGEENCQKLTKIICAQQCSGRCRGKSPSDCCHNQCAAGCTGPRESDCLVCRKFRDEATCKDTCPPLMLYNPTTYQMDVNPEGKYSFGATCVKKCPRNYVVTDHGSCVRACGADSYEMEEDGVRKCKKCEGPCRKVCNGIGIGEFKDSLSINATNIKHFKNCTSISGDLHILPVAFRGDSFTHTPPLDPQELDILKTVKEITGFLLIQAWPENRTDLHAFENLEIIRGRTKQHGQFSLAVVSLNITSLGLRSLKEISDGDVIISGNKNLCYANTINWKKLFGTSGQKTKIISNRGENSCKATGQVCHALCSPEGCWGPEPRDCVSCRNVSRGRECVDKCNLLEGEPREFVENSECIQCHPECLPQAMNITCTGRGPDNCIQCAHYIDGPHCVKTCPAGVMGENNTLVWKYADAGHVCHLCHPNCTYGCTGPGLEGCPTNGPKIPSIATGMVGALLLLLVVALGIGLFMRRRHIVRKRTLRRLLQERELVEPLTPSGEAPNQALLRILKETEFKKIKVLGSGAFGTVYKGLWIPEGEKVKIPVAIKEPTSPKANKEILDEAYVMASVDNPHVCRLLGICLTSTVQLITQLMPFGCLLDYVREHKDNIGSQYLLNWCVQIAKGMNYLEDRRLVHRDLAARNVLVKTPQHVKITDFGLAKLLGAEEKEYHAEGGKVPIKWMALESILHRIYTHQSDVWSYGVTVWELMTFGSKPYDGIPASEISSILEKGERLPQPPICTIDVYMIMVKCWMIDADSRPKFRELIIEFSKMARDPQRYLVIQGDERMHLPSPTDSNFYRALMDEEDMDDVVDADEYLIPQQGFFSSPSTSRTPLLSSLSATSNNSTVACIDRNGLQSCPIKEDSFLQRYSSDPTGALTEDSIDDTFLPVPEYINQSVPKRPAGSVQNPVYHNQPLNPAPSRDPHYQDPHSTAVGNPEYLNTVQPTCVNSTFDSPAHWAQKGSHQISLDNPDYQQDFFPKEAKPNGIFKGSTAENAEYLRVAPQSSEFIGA

hPPARγ = biological target: T15, hPPARγ (Homo sapiens, UniProt P37231); assay: Nuclear hormone receptor assay (Eurofins-CEREP); details: read-out: Relative IC50
T15 construct: Eurofins-CEREP

hM2 = biological target: T16, hM2 (Homo sapiens, UniProt P08172); assay: β-arrestin Antagonist (Eurofins-CEREP); details: read-out: % Effect, Inhibition
T16 sequence (P08172 1-466): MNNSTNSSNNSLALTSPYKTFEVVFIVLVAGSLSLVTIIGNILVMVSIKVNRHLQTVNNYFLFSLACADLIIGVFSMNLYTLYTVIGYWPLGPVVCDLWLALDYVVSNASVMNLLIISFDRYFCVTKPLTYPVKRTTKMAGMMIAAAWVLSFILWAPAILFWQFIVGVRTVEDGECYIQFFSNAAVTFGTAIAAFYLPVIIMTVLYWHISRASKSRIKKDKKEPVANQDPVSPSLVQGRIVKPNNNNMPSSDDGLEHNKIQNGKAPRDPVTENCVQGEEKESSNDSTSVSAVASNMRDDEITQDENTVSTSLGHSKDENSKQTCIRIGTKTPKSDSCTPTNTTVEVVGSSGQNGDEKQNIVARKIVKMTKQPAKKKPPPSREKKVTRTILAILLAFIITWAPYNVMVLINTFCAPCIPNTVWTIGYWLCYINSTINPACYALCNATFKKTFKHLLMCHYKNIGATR

[3] = test system: 454 kinases, 35 G protein-coupled receptors, 14 nuclear hormone receptors, and three cytochrome P450 enzymes; assay: Off-target profiling summary; details: 35 GPCRs
Protocol: The compound was further profiled against 454 kinases, […], 14 nuclear hormone receptors, and three cytochrome P450 enzyme targets (supplemental Tables 2–4). The only inhibitory activity that was noted (at 98% at 10 μM) targeted the calcium mobilization antagonist mode of hADRα1A, a member of the G protein-coupled receptor family involved in epinephrine signaling.

hCAMK2B = biological target: T17, hCAMK2B (Homo sapiens, UniProt Q13554); assay: KINOMEscan; assay type: binding
T17 construct: purchased DiscoverX

hKIT-autoinhibited = biological target: T18, hKIT-autoinhibited (Homo sapiens, UniProt P10721); assay: KINOMEscan; assay type: binding
T18 construct: purchased DiscoverX (KINOMEscan platform)

hD2L = hD2L (Homo sapiens, UniProt P14416); assay: cAMP Potentiation (Eurofins-CEREP); details: @ 10 μM
hD2L, sequence (P14416 whole entry): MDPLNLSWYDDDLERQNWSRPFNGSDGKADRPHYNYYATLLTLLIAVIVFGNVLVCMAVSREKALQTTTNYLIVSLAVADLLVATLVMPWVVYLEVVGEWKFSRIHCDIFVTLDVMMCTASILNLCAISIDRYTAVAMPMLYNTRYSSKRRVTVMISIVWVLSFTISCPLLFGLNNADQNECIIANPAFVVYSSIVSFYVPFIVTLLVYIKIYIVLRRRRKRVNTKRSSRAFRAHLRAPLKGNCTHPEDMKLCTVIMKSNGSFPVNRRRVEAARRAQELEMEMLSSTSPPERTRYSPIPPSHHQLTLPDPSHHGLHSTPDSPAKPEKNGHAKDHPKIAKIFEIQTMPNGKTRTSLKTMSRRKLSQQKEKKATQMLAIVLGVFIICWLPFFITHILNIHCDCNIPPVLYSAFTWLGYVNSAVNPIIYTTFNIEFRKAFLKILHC

hSTK33 = biological target: T19, hSTK33 (Homo sapiens, UniProt Q9BYT3); assay: KINOMEscan; assay type: binding
T19 construct: purchased DiscoverX (KINOMEscan platform)

hDAPK3 = biological target: T20, hDAPK3 (Homo sapiens, UniProt O43293); assay: KINOMEscan; assay type: binding
T20 construct: purchased DiscoverX (KINOMEscan platform)

hTRβ1 = biological target: T21, hTRβ1 (Homo sapiens, UniProt P10828); assay: Nuclear hormone receptor assay (Eurofins-CEREP); details: read-out: Relative IC50
T21 construct: Eurofins-CEREP

hACVRL1 = biological target: T22, hACVRL1 (Homo sapiens, UniProt P37023); assay: KINOMEscan; assay type: binding
T22 construct: purchased DiscoverX (KINOMEscan platform)
T22 sequence (P37023 22-503): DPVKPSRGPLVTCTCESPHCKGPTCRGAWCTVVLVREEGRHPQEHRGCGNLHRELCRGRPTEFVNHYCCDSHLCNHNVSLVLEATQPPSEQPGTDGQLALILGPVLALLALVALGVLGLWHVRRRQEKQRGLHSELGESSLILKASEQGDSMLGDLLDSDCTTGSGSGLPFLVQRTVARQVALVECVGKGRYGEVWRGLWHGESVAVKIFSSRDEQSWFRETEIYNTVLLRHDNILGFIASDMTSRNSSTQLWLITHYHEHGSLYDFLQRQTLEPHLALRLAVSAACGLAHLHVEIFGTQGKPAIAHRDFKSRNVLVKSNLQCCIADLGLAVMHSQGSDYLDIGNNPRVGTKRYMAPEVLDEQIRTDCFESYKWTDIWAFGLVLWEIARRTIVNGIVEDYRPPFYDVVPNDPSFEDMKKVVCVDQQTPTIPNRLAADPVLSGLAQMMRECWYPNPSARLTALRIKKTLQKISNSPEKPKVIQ

Cc1cn(CCN2CCN(c3ccccc3-c3cc(C#N)cc(C(=O)NCCCN4CCCC4)c3)CC2)c2ccccc12 [LLY-507, 3-cyano-5-{2-[4-[2-(3-methylindol-1-yl)ethyl]piperazin-1-yl]-phenyl}-N-[(3-pyrrolidin-1-yl)propyl]benzamide]
> 10 µM: IC50 (hTRα1) | IC50 (hPPARγ) | IC50 (hTRβ1)
> 20 µM: IC50 (hKIT(L576P)) | IC50 (hWEE1) | IC50 (hJAK1(JH1Dom.-catalytic)) | IC50 (hDRAK2) | IC50 [1] | IC50 (hRSK4(Kin.Dom.1-N-term)) | IC50 (hMARK3) | IC50 (hSRPK2) | IC50 (hMET(M1250T)) | IC50 (hSLK) | IC50 (hRIPK2) | IC50 [2] | inactive against off-target panels [3] | IC50 (hCAMK2B) | IC50 (hKIT-autoinhibited) | IC50 (hSTK33) | IC50 (hDAPK3) | IC50 (hACVRL1)
36.3%: inhibition at 10 µM (hM2)
-19.4%: % Effect, Potentiation (hD1)
-27.5%: % Effect, Potentiation (hD2L)
-20.5%: % Effect, Potentiation (hADRα2A)
